Measurements as given in ChEMBL document CHEMBL1201862, “PubChem BioAssay data set” (2004).
Active and inactive are the calls of the source.

What was measured:
HEK293 [1] = assay: cells; type: functional, cell-based; details: Homo sapiens
HEK293 [2] = assay: cells; type: functional, cell-based; details: Homo sapiens; remark: listed apart in the source
[3] = molecular target: T1, Nucleotide-binding oligomerization domain-containing protein 2 (Homo sapiens, UniProt Q9HC29); assay: PubChem AID 2334; type: functional
HEK293 [4] = assay: cells; details: Homo sapiens
HEK293 [5] = assay: cells; type: functional, cell-based; details: Homo sapiens; remark: listed apart in the source
HEK293 [6] = assay: NOD2 signaling inhibitors in MDP-stimulated cells, cell-based, uHTS, luminescence (AID 2001); type: functional; details: Homo sapiens
HEK293 [7] = assay: inhibition of NOD1-driven NF-kB reporter – cell-based, luminescence, uHTS, primary screen (AID 1578); type: functional; details: Homo sapiens
Tumor necrosis factor = Tumor necrosis factor (Homo sapiens, UniProt P01375); assay: analog potency on TNFa NF-kB signaling – cell-based, revised, SAR follow-up (AID 2337); type: functional
[8] = molecular target: T2, Nucleotide-binding oligomerization domain-containing protein 1 (Homo sapiens, UniProt Q9Y239); assay: blockers of NOD1 pathway activity – revised, SAR follow-up (AID 2333); type: functional
T2 sequence (Q9Y239 whole entry): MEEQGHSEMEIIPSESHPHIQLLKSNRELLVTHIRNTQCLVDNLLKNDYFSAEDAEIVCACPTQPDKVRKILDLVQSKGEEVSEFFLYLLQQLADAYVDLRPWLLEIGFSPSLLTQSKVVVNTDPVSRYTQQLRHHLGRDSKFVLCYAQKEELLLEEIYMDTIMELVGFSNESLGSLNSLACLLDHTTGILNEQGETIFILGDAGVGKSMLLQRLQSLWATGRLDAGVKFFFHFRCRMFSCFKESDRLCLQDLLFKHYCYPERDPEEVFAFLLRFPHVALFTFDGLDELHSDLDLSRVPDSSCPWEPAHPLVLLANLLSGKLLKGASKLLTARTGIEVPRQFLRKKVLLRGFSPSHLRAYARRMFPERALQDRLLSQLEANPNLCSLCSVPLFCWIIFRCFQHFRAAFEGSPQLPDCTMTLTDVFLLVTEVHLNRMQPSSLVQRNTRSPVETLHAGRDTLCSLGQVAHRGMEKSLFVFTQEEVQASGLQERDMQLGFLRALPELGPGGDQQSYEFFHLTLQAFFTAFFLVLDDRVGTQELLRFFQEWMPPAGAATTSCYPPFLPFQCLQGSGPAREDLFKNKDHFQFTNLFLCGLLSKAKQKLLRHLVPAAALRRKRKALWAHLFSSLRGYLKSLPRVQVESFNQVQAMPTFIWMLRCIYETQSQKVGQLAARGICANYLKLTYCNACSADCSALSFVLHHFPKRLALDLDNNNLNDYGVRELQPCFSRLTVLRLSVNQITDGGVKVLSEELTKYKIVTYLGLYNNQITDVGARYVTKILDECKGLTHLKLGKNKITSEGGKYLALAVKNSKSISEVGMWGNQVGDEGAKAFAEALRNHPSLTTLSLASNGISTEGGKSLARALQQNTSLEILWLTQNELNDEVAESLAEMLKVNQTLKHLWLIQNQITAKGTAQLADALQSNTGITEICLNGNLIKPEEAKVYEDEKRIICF

[9] = molecular target: T1, Nucleotide-binding oligomerization domain-containing protein 2; assay: inhibition of NOD2-driven NF-kB reporter – cell-based, luminescence, uHTS, HEK293 (AID 1566); type: functional
Cytochrome P450 2D6 = Cytochrome P450 2D6 (Homo sapiens, UniProt P10635);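 further: CYP2D6 member of a cytochrome P450 panel assay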
Cytochrome P450 2C9 = Cytochrome P450 2C9 (Homo sapiens, UniProt P11712)
CAAX prenyl protease 2 = CAAX prenyl protease 2 (Saccharomyces cerevisiae S288c, UniProt Q03530); type: biochemical
CAAX prenyl protease 1 = CAAX prenyl protease 1 (Saccharomyces cerevisiae S288c, UniProt P47154); assay: yeast CAAX protease Ste24 inhibition – biochemical, S. cerevisiae, plate reader, cherry-pick, dose response (AID 488815)
Sequence of CAAX prenyl protease 1 (P47154 whole entry): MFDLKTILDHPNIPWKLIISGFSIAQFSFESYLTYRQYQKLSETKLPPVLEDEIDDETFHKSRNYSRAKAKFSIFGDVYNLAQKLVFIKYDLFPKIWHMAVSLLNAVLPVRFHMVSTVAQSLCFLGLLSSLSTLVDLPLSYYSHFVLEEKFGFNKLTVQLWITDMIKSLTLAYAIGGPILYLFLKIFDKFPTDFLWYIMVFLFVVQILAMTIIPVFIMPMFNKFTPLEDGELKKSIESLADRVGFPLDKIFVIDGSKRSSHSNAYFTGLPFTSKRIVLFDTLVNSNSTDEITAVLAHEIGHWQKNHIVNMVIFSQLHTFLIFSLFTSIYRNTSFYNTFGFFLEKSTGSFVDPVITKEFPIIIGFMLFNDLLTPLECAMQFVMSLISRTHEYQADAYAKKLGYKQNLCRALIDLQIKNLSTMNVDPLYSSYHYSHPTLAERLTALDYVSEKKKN

T1 sequence (Q9HC29 whole entry, the tested form may be a part): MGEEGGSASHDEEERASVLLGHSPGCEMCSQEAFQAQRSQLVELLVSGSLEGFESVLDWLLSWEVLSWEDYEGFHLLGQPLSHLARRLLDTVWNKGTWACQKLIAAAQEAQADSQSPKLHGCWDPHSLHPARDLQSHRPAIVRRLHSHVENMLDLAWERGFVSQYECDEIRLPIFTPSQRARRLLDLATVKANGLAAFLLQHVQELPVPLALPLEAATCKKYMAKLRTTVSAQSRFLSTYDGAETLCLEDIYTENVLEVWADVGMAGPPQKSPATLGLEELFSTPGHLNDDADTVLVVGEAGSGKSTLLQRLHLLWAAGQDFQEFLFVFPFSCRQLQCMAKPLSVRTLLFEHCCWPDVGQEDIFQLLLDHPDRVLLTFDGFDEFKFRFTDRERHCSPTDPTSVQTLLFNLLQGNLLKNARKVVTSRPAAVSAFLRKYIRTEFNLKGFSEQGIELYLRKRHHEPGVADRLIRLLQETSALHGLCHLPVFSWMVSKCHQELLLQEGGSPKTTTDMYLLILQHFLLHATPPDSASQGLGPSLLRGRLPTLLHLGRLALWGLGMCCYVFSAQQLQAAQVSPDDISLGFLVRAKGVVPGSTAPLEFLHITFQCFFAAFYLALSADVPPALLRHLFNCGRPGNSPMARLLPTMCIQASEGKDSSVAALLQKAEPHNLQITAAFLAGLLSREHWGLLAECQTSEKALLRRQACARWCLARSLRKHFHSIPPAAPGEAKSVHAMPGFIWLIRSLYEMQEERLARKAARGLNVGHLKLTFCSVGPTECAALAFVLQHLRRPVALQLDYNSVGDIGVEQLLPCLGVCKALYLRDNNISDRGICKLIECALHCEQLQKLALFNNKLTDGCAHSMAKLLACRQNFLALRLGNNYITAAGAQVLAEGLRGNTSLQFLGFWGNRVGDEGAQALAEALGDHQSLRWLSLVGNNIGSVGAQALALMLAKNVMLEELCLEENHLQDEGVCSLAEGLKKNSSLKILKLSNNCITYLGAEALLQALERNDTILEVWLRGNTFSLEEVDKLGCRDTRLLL
Sequence of CAAX prenyl protease 2 (Q03530 whole entry): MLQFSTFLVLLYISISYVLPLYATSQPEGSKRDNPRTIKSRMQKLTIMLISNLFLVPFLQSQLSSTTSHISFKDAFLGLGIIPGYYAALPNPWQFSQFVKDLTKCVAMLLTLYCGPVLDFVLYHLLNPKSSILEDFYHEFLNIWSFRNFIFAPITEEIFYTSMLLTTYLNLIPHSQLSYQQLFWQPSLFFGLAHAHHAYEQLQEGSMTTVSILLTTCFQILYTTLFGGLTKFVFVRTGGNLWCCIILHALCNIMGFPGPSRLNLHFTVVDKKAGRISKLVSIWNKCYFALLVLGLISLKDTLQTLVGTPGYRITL
Sequence of Cytochrome P450 2D6 (P10635 whole entry): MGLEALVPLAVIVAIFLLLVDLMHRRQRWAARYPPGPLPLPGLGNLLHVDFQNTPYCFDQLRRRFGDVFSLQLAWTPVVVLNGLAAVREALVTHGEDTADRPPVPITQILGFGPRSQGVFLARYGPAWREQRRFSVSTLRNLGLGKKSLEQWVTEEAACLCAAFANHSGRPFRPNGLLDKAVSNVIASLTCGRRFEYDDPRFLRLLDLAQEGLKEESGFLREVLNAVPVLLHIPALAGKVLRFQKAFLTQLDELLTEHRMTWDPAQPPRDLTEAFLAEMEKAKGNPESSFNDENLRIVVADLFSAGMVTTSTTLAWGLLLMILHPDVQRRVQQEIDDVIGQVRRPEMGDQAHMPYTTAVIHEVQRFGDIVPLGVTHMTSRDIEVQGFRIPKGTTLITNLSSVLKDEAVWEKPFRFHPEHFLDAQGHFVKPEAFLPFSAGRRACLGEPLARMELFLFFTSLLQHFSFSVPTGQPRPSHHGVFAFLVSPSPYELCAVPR
Sequence of Tumor necrosis factor (P01375 whole entry, the tested form may be a part): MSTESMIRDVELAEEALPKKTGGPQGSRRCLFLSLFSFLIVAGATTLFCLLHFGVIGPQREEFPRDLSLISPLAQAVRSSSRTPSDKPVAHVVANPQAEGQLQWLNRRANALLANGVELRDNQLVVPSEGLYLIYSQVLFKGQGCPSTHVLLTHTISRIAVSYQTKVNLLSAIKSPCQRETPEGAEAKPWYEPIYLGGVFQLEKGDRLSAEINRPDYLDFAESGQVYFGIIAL
Sequence of Cytochrome P450 2C9 (P11712 whole entry): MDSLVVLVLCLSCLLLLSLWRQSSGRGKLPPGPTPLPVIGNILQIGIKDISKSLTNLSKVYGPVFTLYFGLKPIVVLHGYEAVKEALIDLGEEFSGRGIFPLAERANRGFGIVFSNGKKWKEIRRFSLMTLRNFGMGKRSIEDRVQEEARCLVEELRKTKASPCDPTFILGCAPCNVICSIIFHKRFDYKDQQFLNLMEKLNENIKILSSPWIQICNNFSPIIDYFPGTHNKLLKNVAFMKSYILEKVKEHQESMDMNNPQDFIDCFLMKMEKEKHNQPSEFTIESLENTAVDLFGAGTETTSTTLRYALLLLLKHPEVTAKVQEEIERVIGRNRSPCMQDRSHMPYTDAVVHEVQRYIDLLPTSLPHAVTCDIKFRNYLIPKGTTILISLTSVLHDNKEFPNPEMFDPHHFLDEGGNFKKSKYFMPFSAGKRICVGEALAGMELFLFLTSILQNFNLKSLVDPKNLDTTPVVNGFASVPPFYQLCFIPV

For COc1ccc(NC(C)=O)cc1S(=O)(=O)Nc1ccc(OCc2ccccc2)cc1, the IC50 (HEK293 [1]) was > 20 µM (inactive), the IC50 (HEK293 [2]) was > 20 µM (inactive) and the IC50 [3] was 16.6 µM (active). The IC50 (HEK293 [4]) was > 20 µM (inactive), the IC50 (HEK293 [5]) was > 20 µM (inactive) and the IC50 (HEK293 [6]) was > 20 µM (inactive). The EC50 (HEK293 [7]) was 13.7 µM (active), the IC50 (Tumor necrosis factor) was 18 µM (active) and the IC50 [8] was 12.7 µM (active). For the same molecule, the EC50 [9] was 12.3 µM (active).
O=[N+]([O-])c1ccc(N2CCOCC2)nc1 was tested, and the AC50 (Cytochrome P450 2D6) was “inconclusive” and the AC50 (Cytochrome P450 2C9) was 7.94 µM (inconclusive).
With Cc1ccc2c(C)c(C(=O)N(Cc3ccc(F)cc3)C3CCS(=O)(=O)C3)oc2c1 (centres undefined) the AC50 (CAAX prenyl protease 2) was > 100 µM (inactive) and the AC50 (CAAX prenyl protease 1) was 26.5 µM (active).
